Here are results for 21 molecules from PubChem BioAssay AID248 (DTP/NCI, 2004).

Several values for one entry are separate records, joined by “and”; a condition that tells them apart may be missing. Equal entries are not always repeated. Toxic doses and inconclusive results are not listed.

This assay deals with L1210 leukemia ip in BDF1 mice, survival T/C. Put plainly: NCI In Vivo Anticancer Drug Screen. Data for tumor model L1210 Leukemia (intraperitoneal) in B6D2F1 (BDF1) mice. The following applies: endpoint: mean survival time, higher = longer survival. A digest of the protocol: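 Mice bearing the transplanted tumor received compound or vehicle. Survival of the treated group was divided by that of the vehicle-treated control group to give the ratio.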

[1] abbreviates: dose: 50.0 mg/kg/injection, schedule: Q01DX009 (ip), vehicle: saline with Tween-80.
Setting [2] is: dose: 50.0 mg/kg/injection, schedule: Q01DX009 (ip), vehicle: saline.
[3] abbreviates: dose: 100.0 mg/kg/injection, schedule: Q01DX009 (ip), vehicle: saline with Tween-80.
The mark [4] stands for this setting: dose: 100.0 mg/kg/injection, schedule: Q01DX009 (ip), vehicle: saline.
The mark [5] stands for this setting: dose: 200.0 mg/kg/injection, schedule: Q01DX009 (ip), vehicle: saline with Tween-80.
The mark [6] stands for this setting: dose: 200.0 mg/kg/injection, schedule: Q01DX009 (ip), vehicle: saline.
Setting [7] is: dose: 400.0 mg/kg/injection, schedule: Q01DX009 (ip), vehicle: saline with Tween-80.
Where [8] appears, read: dose: 100.0 mg/kg/injection, schedule: Q01DX009 (ip), vehicle: other.
The mark [9] stands for this setting: dose: 200.0 mg/kg/injection, schedule: Q01DX009 (ip), vehicle: other.
Where [10] appears, read: dose: 400.0 mg/kg/injection, schedule: Q01DX009 (ip), vehicle: other.
Where [11] appears, read: dose: 100.0 mg/kg/injection, schedule: Q01DX009 (ip), vehicle: Klucel (hydroxypropylcellulose) (HPC).
Setting [12] is: dose: 100.0 mg/kg/injection, schedule: Q04DX003 (ip), vehicle: Klucel (hydroxypropylcellulose) (HPC).
Where [13] appears, read: dose: 200.0 mg/kg/injection, schedule: Q01DX009 (ip), vehicle: Klucel (hydroxypropylcellulose) (HPC).
Where [14] appears, read: dose: 200.0 mg/kg/injection, schedule: Q04DX003 (ip), vehicle: Klucel (hydroxypropylcellulose) (HPC).
The mark [15] stands for this setting: dose: 100.0 mg/kg/injection, schedule: Q04DX003 (ip), vehicle: saline with Tween-80.
Setting [16] is: dose: 200.0 mg/kg/injection, schedule: Q04DX003 (ip), vehicle: saline with Tween-80.
[17] abbreviates: dose: 400.0 mg/kg/injection, schedule: Q04DX003 (ip), vehicle: saline with Tween-80.
The mark [18] stands for this setting: dose: 100.0 mg/kg/injection, schedule: Q04DX003 (ip), vehicle: saline.
Setting [19] is: dose: 200.0 mg/kg/injection, schedule: Q04DX003 (ip), vehicle: saline.

As to `O=C(O)/C=C\C(=O)NNC(=O)/C=C\C(=O)O`, the T/C is 101 % of control under setting [1]; 100 % of control under setting [2]; 96 % of control under setting [3]; 100 % of control under setting [4]; 104 % of control under setting [5]; 93 % of control under setting [6].

Take `N#CCCCC(=O)c1ccccc1`: the T/C (dose: 25.0 mg/kg/injection, schedule: Q01DX009 (ip), vehicle: saline with Tween-80) is 96 % of control; the T/C under setting [1] is 102 % of control; the T/C under setting [3] is 92 % of control.

Regarding `COC(=O)C1OC1(C)c1ccc(C)cc1` (configuration not stated), the T/C is 92 % of control under setting [3] and 106 % of control under setting [7].

As for `COC(=O)C1=C(C(=O)OC)C2CCC1C2`, the T/C under setting [8] is 103 % of control, the T/C under setting [9] was 103 % of control and the T/C under setting [10] is 98 % of control.

For the molecule `CC(C(=O)O)N(Cc1ccccc1)S(C)(=O)=O` (configuration not stated), the T/C is, setting by setting: under setting [8], 97 % of control; (dose: 100.0 mg/kg/injection, schedule: Q04DX003 (ip), vehicle: other) 94 % of control; under setting [9], 106 % of control; (dose: 200.0 mg/kg/injection, schedule: Q04DX003 (ip), vehicle: other) 102 % of control; under setting [10], 108 % of control; (dose: 400.0 mg/kg/injection, schedule: Q04DX003 (ip), vehicle: other) 101 % of control.

For the molecule `COc1cc(C(=O)N=Nc2c(O)[nH]c3ccc(Br)cc23)cc(OC)c1OC`, the T/C runs as follows: (dose: 100.0 mg/kg/injection, schedule: Q04DX002 (ip), vehicle: Klucel (hydroxypropylcellulose) (HPC)) 115 % of control; (dose: 200.0 mg/kg/injection, schedule: Q04DX002 (ip), vehicle: Klucel (hydroxypropylcellulose) (HPC)) 104 % of control; (dose: 400.0 mg/kg/injection, schedule: Q04DX002 (ip), vehicle: Klucel (hydroxypropylcellulose) (HPC)) 115 % of control.

Consider `NC1=NC(c2ccccc2)N(c2ccccc2Cl)C(N)=N1` (configuration not stated), for which the T/C is 97 % of control (dose: 75.0 mg/kg/injection, schedule: Q01DX001 (ip), vehicle: Klucel (hydroxypropylcellulose) (HPC)) and 94 % of control (dose: 150.0 mg/kg/injection, schedule: Q01DX001 (ip), vehicle: Klucel (hydroxypropylcellulose) (HPC)).

On to `CCCCCCOC(N)=O`, for which the T/C by setting is: (dose: 50.0 mg/kg/injection, schedule: Q01DX009 (ip), vehicle: Klucel (hydroxypropylcellulose) (HPC)) 96 % of control; under setting [11], 96 % of control; under setting [12], 96 % of control; under setting [13], 96 % of control; under setting [14], 96 % of control.

For the molecule `CSc1ccc(NC(=O)Nc2ccc(S(N)(=O)=O)cc2)cc1`, the T/C reads like this: under setting [3], 106 % of control; under setting [12], 104 % of control; under setting [5], 95 % of control; under setting [14], 100 % of control; under setting [7], 102 % of control; (dose: 400.0 mg/kg/injection, schedule: Q04DX003 (ip), vehicle: Klucel (hydroxypropylcellulose) (HPC)) 98 % of control.

With `O=C1CC(CO)CN1CCc1ccccc1` (configuration not stated), the T/C by setting is: under setting [15], 96 % of control; under setting [16], 94 % of control; under setting [17], 96 % of control.

`O=C(O)c1c(Cl)c([N+](=O)[O-])cc([N+](=O)[O-])c1Cl`: the T/C by setting is: under setting [2], 92 % of control; under setting [4], 92 % of control; under setting [18], 103 % of control; under setting [6], 92 % of control; under setting [19], 99 % of control.

On to `COc1ccc(N(C)C(C)=S)cc1`, for which the T/C by setting is: (dose: 100.0 mg/kg/injection, schedule: Q04DX003 (ip), vehicle: gum acacia) 96 % of control; (dose: 200.0 mg/kg/injection, schedule: Q04DX003 (ip), vehicle: gum acacia) 103 % of control.

`O=NN(CCCl)C(=O)Nc1ccc2ccccc2c1`: the T/C was 161 % of control (dose: 200.0 mg/kg/injection, schedule: Q01DX001 (ip), vehicle: carboxymethylcellulose (CMC)); 172 % of control (dose: 300.0 mg/kg/injection, schedule: Q01DX001 (ip), vehicle: carboxymethylcellulose (CMC)); 96 % of control (dose: 400.0 mg/kg/injection, schedule: Q01DX001 (ip), vehicle: carboxymethylcellulose (CMC)).

Take `COC(=O)NC1c2ccccc2CCC1I` (configuration not stated): the T/C is 94 % of control under setting [1], 90 % of control under setting [3] and 92 % of control under setting [5].

For the molecule `CSCc1cccc(CO)c1`, the T/C is, setting by setting: (dose: 100.0 mg/kg/injection, schedule: Q01DX009 (ip), vehicle: acetone) 101 % of control; (dose: 100.0 mg/kg/injection, schedule: Q04DX003 (ip), vehicle: acetone) 98 % of control; (dose: 200.0 mg/kg/injection, schedule: Q01DX009 (ip), vehicle: acetone) 105 % of control; (dose: 200.0 mg/kg/injection, schedule: Q04DX003 (ip), vehicle: acetone) 106 % of control; (dose: 400.0 mg/kg/injection, schedule: Q01DX009 (ip), vehicle: acetone) 97 % of control; (dose: 400.0 mg/kg/injection, schedule: Q04DX003 (ip), vehicle: acetone) 109 % of control.

Turning to `CN(CC(O)COc1ccccc1)CC1CCCO1` (configuration not stated), the T/C was 98 % of control (dose: 25.0 mg/kg/injection, schedule: Q04DX003 (ip), vehicle: Klucel (hydroxypropylcellulose) (HPC)); 97 % of control (dose: 50.0 mg/kg/injection, schedule: Q04DX003 (ip), vehicle: Klucel (hydroxypropylcellulose) (HPC)); 95 % of control and 98 % of control under setting [12].

As for `CCOc1ccc(-n2cnc3c(=O)[nH]c(N)nc32)cc1`, the T/C is 93 % of control under setting [11]; 91 % of control under setting [13]; 91 % of control (dose: 400.0 mg/kg/injection, schedule: Q01DX009 (ip), vehicle: Klucel (hydroxypropylcellulose) (HPC)).

Turning to `CN(C)CCCNCC(Cc1ccccc1)c1ccccc1` (configuration not stated), under “dose: 100.0 mg/kg/injection, schedule: Q04DX002 (ip), vehicle: saline”, the T/C is 93 % of control.

As for `Cc1ccc(Oc2ccc([N+](=O)[O-])cc2[N+](=O)[O-])cc1C`, the T/C was 90 % of control (dose: 222.0 mg/kg/injection, schedule: Q01DX Z (ip), vehicle: methylcellulose (MC)); 92 % of control (dose: 333.0 mg/kg/injection, schedule: Q01DX Z (ip), vehicle: methylcellulose (MC)); 92 % of control (dose: 500.0 mg/kg/injection, schedule: Q01DX Z (ip), vehicle: methylcellulose (MC)).

With `CCCCC(CC)CN(CC(CC)CCCC)c1nc(Cl)nc(N(CC(CC)CCCC)CC(CC)CCCC)n1` (configuration not stated), the T/C reads like this: (dose: 25.6 mg/kg/injection, schedule: Q04DX002 (ip), vehicle: saline with Tween-80) 91 % of control; (dose: 64.0 mg/kg/injection, schedule: Q04DX002 (ip), vehicle: saline with Tween-80) 97 % of control; under setting [15], 92 % of control; (dose: 160.0 mg/kg/injection, schedule: Q04DX002 (ip), vehicle: saline with Tween-80) 91 % of control; under setting [16], 94 % of control; (dose: 400.0 mg/kg/injection, schedule: Q04DX002 (ip), vehicle: saline with Tween-80) 91 % of control. For the same molecule, the T/C under setting [17] is 92 % of control.

On to `O=CNNC(=O)c1cnccn1`, for which the T/C under setting [4] is 104 % of control; the T/C under setting [18] is 103 % of control; the T/C (dose: 177.0 mg/kg/injection, schedule: Q01DX009 (ip), vehicle: saline) was 117 % of control; the T/C under setting [6] is 115 % of control; the T/C under setting [19] was 97 % of control; the T/C (dose: 266.0 mg/kg/injection, schedule: Q01DX009 (ip), vehicle: saline) was 114 % of control. For the same molecule, the T/C (dose: 400.0 mg/kg/injection, schedule: Q04DX003 (ip), vehicle: saline) is 120 % of control.
